In patent US20150335670A1, “Medical applications of Notoginsenoside Fc” (SHANGHAI UNIVERSITY OF TRADITIONAL CHINESE MEDICINE, priority 2013, published 2015):
Where “and” joins values, the source holds several entries; their conditions need not be identical. Identical values can stand only once.

What was measured:
rat tail bleeding = assay: Bleeding time assay (rat tail transection); type: in vivo; conditions: rats; vs control
Text: 2.1.3.1 Bleeding time assay: rat tail was transected 0.5 cm from the tip to induce bleeding. And the bleeding time was defined as the time from the start of transection to bleeding cessation. The time at which the flow of blood ceased for 30 s was considered as bleeding cessation.

rat plasma = assay: Blood coagulation index APTT in rat plasma; type: biochemical
Text: (§1) 2.1.3.2 Four indexes of blood coagulation: i) Prothrombin time (PT) mainly reflects extrinsic coagulation conditions. Its value is increased when the levels of coagulation factor IX and XI in plasma are reduced, which usually occurs in hemophilia, hemophilia B and factor XI deficiency patients. Conversely, the reduction of it is seen in hypercoagulable state, when the procoagulant substances get into blood and the activity of coagulation factors is increased. ii) Activated partial thromboplastin time (APTT) reflects mainly intrinsic coagulation conditions. Its value is changed under the similar condition as PT. iii) Thrombin time (TT) mainly reflects the abnormality in the conversion of fibrinogen into fibrin. Its value is elevated in DIC hyperfibrinolysis period, afibrinogenemia and hemoglobin hyperlipidemia, and when degradation products (FDPs) of blood fibrin are increased. iv) Fibrinogen (Fibrinogen, FIB) mainly reflects the content of fibrinogen in plasma. Generally, its concentration is elevated in acute myocardial infarction. The reduction of it is observed in DIC dissolution of low consumption of coagulation, primary fibrinolysis, severe hepatitis, hepatic cirrhosis.

standard human plasma = assay: Four indexes of blood coagulation (APTT, PT), human; type: biochemical; conditions: 80 μg/ml
Text: Notoginsenoside Fc (molecular weight 1211.38, HPLC purity≧99%, from Institute of Chinese Materia Medica), clopidogrel (molecular weight 419.90, HPLC purity≧98%, from National Institutes for Drug Control), standard human plasma, reagents for measurement of four indexes of blood coagulation (from Siemens, Germany), and adenosine diphosphate (ADP) (from Sigma, USA).
as §1, with “Generally, its concentration is elevated in acute myocardial infarction. The reduction of it is observed in DIC dissolution of low consumption of coagulation, primary fibrinolysis, severe hepatitis, hepatic cirrhosis.” left out

platelet = assay: In vitro platelet aggregation assay (ADP-induced, nephelometry); type: cell-based, rat
Protocol: 2.1.1 In vitro platelet aggregation assay: blood samples were placed in a centrifuge tube pre-coated with sodium citrate and centrifuged at 100 g for 5 min. The supernatant was collected and designated as rich platelet (PRP). After addition of prostacyclin (2 μg/ml), PRP was centrifuged at 700 g for 5 min and washed twice with 0.9% saline. The washed platelets were re-suspended in Tyrode buffer and diluted at a density of 4×10^8 cells/ml for further utilization. Platelet aggregation assay was provided according to a nephelometry method: platelet plasma was placed in cuvette; after addition of a inducing agent (ADP: 5-adenosine diphosphate disodium salt: 1×10^−4 mol/L), the platelet plasma was stirred with magnetic particles, wherein platelet was gradually aggregated, plasma turbidity was reduced, and transmittance was increased. Changes were recorded for drawing a dynamic curve of platelet aggregation. Aggregation rate and transmittance for PRP were regarded as 0; aggregation rate and transmittance of suspension were regarded as 100%. A platelet aggregation instrument was used for automatic measurement, recording, and drawing the platelet aggregation curve. For judging inhibiting or promoting of aggregation, it was mainly depending on whether synergy or antagonism happened with the inducing agent; wherein synergy was to promote platelet aggregation, antagonism was to inhibit platelet aggregation.
Blank control group: 0.9% physiological saline (NS).
Model group: adenosine diphosphate (ADP) (10 mM).
Positive control group: clopidogrel (5 mM).
Treatment groups: six rats for each group, Fc dissolved in double distilled water (prepared with different concentrations).

platelet thrombus = assay: Whole animal thrombogenesis assay (extracorporeal circulation model, thrombus weight); type: in vivo, rat; conditions: rats, 8.1 mg/kg intravenous, extracorporeal circulation started 5 min later, 15 min, blank control 37.2 mg
Text: 2.1.2 Whole animal thrombogenesis assay: when arterial blood platelets contact a rough surface of a wire, the platelets are adhered to the wire and form platelet thrombus on a surface thereof. When platelet adhesion and aggregation function is suppressed, thrombus is light. Therefore, thrombus weight can measure platelet adhesion and aggregation functions.
Referring to FIG. 3, effect of the notoginsenoside Fc on the platelet aggregation function is illustrated. […] In the extracorporeal circulation model, the rats were intravenous administered with Fc at dose of 8.1 mg/kg. Five minutes later, the extracorporeal circulation was initiated and stopped after fifteen minutes. The thrombus formed on the thread was weighed. Significant difference was found between the blank control group and the Fc treatment group (**P<0.01).

[1] = tested on: acute myocardial infarction in rats; assay: Acute myocardial infarction in rats (coronary ligation, TTC staining, pathohistology); type: in vivo, rat; conditions: for myocardial infarction area (ischemic area %): individual animals
Protocol: Model preparing method: 30 SD rats (Shanghai University of Traditional Chinese Medicine Experimental Animal Center), weight: 320-370 g; rat was treated with anesthesia with pentobarbital (35 mg/kg), supine fixing; neck midline incision, separating trachea, tracheotomy, inserting a breathing tube, adjusting a frequency and tidal volume of a ventilator; median sternotomy thoracotomy (3-4 intercostal), using thin surgical needle and line six for starting at a left atrial appendage, and ligation at pulmonary cone. Successful standard thereof was that: observing with naked eyes (anterior descending artery blood supply area was darken or pale). Chest was quickly closed. For the sham group, the line passed the left anterior descending coronary artery bypass without ligation.
TTC staining: rat hearts were frozen at −20° C., and were taken out after being hard; the rat hearts were left-coronally excised into 5-6 pieces at a thickness of 3-4 mm. Then the rat hearts were placed in 0.5% TTC solution, and incubated at 37° C. for 15 min. The pieces were taken out and fixed in 4% formaldehyde solution.
The hearts were cut according to two different colors and drained water with filter paper before weighing. Calculation formula was as follows: ischemic area (%)=[…]×100%. Meanwhile, the hearts were partly acquired for pathological analysis.
Control group: six rats, administered with 0.9% physiological saline (NS) after surgery.
Sham operation group: six rats, opening chest and passing line without ligation.
Positive medicine group: six rats, administered with ticagrelor (4.1 mg/kg) after surgery.
4 mg/kg Fc treatment group: six rats, administered with Fc (4 mg/kg) after surgery.
12 mg/kg Fc treatment group: six rats, administered with Fc (12 mg/kg) after surgery.

SMILES: CC(C)=CCC[C@](C)(O[C@@H]1O[C@H](CO[C@@H]2OC[C@@H](O)[C@H](O)[C@H]2O)[C@@H](O)[C@H](O)[C@H]1O)[C@H]1CC[C@]2(C)[C@@H]1[C@H](O)C[C@@H]1[C@@]3(C)CC[C@H](O[C@@H]4O[C@H](CO)[C@@H](O)[C@H](O)[C@H]4O[C@@H]4O[C@H](CO)[C@@H](O)[C@H](O)[C@H]4O[C@@H]4OC[C@@H](O)[C@H](O)[C@H]4O)C(C)(C)[C@@H]3CC[C@]12C [Notoginsenoside Fc, notoginsenoside Fc]
- rat tail bleeding time (rat tail bleeding): significantly prolonged
- APTT Time (rat plasma; 5 μg/ml): 19.20 s
- APTT Time (rat plasma; 5 μg/ml, listed as Fc): 19 s
- APTT Time (rat plasma; 10 μg/ml): 20.31 s
- APTT Time (rat plasma; 20 μg/ml): 21.61 s
- APTT Time (rat plasma; 80 μg/ml): 28.25 s
- APTT Time (rat plasma; 160 μg/ml): 32.65 s
- APTT Time (rat plasma; 160 μg/ml, listed as Fc): 32 s
- difference in APTT (rat plasma; from 5 μg/ml to 160 μg/ml): 13 s
- APTT (standard human plasma; blank control 91 s): 126 s
- PT (standard human plasma; vs blank control): longer
- IC50 (platelet; ADP-induced, 0.1-40 μM, read-out: IC50 (inhibition of platelet aggregation)): 13.5 µM
- platelet aggregation rate (platelet; ADP-induced, Fc 200 μM): 25.8%
- aggregation rate (%) (platelet; ADP-induced, dose 0.1 μM, listed as Fc): 47.9%
- aggregation rate (%) (platelet; ADP-induced, dose 0.1 μM, listed as notoginsenoside Fc): 47.98%
- aggregation rate (%) (platelet; ADP-induced, dose 10 μM): 42.83%
- aggregation rate (%) (platelet; ADP-induced, dose 20 μM): 32.33%
- aggregation rate (%) (platelet; ADP-induced, dose 30 μM): 31.60%
- aggregation rate (%) (platelet; ADP-induced, dose 40 μM, listed as Fc): 28.1%
- aggregation rate (%) (platelet; ADP-induced, dose 40 μM, listed as notoginsenoside Fc): 28.13%
- decreasing amplitude of platelet aggregation rate (platelet; from 0.1 μM to 40 μM): up to 19.8%
- weight of thrombus (wet weight) (platelet thrombus; listed as FC): 28.2 mg
- weight of thrombus (wet weight) (platelet thrombus; listed as Fc): actively reduce thrombogenesis
- myocardial infarction area (ischemic area %) ([1]; Fc 4 mg/kg after surgery): 17.27% and 22.31% and 22.8% and 19.05% and 19.74% and 16.88%
- pathohistology of myocardium ([1]; Fc 4 mg/kg, FIG. 12): arrangement of most of the myocardial cells was normal
- myocardial infarction area (ischemic area %) ([1]; Fc 12 mg/kg after surgery): reduced more myocardial infarction than the positive medicine group and 5.843% and 3.482% and 5.463% and 4.892% and 5.19% and 4.595%
- pathohistology of myocardium ([1]; Fc 12 mg/kg, FIG. 13): arrangement of the myocardial cells was almost normal
- percentage of the infarcted area ([1]; Fc 4 and 12 mg/kg, FIG. 8, vs control): significantly reduced

SMILES: CCCSc1nc(N[C@@H]2C[C@H]2c2ccc(F)c(F)c2)c2nnn([C@@H]3C[C@H](OCCO)[C@@H](O)[C@H]3O)c2n1 [ticagrelor, reference compound]
- myocardial infarction area (ischemic area %) ([1]; ticagrelor 4.1 mg/kg after surgery): 15.15% and 17% and 13.85% and 14.24% and 16.69% and 16.94%
- pathohistology of myocardium ([1]; ticagrelor 4.1 mg/kg, FIG. 11): arrangement of myocardial cells was disordered in local area
